# Molecular target: Gag-Pol polyprotein (Human immunodeficiency virus type 1 group M subtype B (isolate BH10)(HIV-1)) (UniProt P03366)
# Assay: Inhibition of RNA dependent DNA polymerase activity of HIV1 BH10 recombinant reverse transcriptase p66/p51 expressed in Escherichia coli at 10 uM
# Conditions: Human immunodeficiency virus 1
row,Structure (SMILES),inhibition
1,CCCCC/C=C\C/C=C\CCCCCCCC(=O)OC[C@H](CO[C@@H]1O[C@H](CO[C@H]2O[C@H](CO)[C@H](O)[C@H](OC(=O)CCCCCCCCCCCCCCC)[C@H]2O)[C@H](O)[C@H](O)[C@H]1O)OC(=O)CCCCCCCCCCCCCCC,42%
2,"CCCCCCCC/C=C\CCCCCCCC(=O)OC[C@H](CO[C@@H]1O[C@H](CO)[C@H](O)[C@H](O)C1O)OC(=O)CCCCCCCCCCCCCCC (single isomer, unassigned)",33%
3,CCCCC/C=C\C/C=C\CCCCCCCC(=O)OC[C@H](CO[C@H]1O[C@H](CS(=O)(=O)O)[C@@H](O)[C@H](OC(=O)CCCCCCCCCCCCCCC)[C@H]1OC(=O)CCCCCCCCCCCCCCC)OC(=O)CCCCCCCCCCCCCCC,100%
4,CCCCCCCCCCCCCCCC(=O)OC[C@H](CO[C@H]1O[C@H](CS(=O)(=O)O)[C@@H](O)[C@H](O)[C@H]1O)OC(=O)CCCCCCCCCCCCCCC,100%
5,"CCCCCCCCCCCCCCCC(=O)OC[C@H](CO[C@@H]1O[C@H](CO)[C@H](O)[C@H](O)C1O)OC(=O)CCCCCCCCCCCCCCC (single isomer, unassigned)",8%

# The remaining lines, values ahead:
row,inhibition,Structure (SMILES)
1,65%,"CCCCC/C=C\C/C=C\CCCCCCCC(=O)OC[C@H](CO[C@@H]1O[C@H](CO)[C@H](O)[C@H](O)C1O)OC(=O)CCCCCCCCCCCCCCC (single isomer, unassigned)"
2,100%,CCCCCCCC/C=C\CCCCCCCC(=O)OC[C@H](CO[C@H]1O[C@H](CS(=O)(=O)O)[C@@H](O)[C@H](O)[C@H]1O)OC(=O)CCCCCCCCCCCCCCC
3,100%,CCCCC/C=C\C/C=C\CCCCCCCC(=O)OC[C@H](CO[C@H]1O[C@H](CS(=O)(=O)O)[C@@H](O)[C@H](O)[C@H]1O)OC(=O)CCCCCCCCCCCCCCC
